Holding throughout (assay type): in vivo, C57BL/6J mice
Assay [1] concerns fatty acid synthase (FAS). As to the kind of experiment: FAS activity in epididymal white adipose tissue. The note with it: FIG. 5A, HFD+5% w/w in diet, 16 weeks. As to the method: (§1) First, 4-week-old male C57BL/6J mice (60 total) were purchased from Jackson Laboratory. The animals were acclimated to the vivarium in a thermo-hygrostat (20-23° C., 45-65%) under a 12 h light/dark cycle and fed a pelletized commercial non-purified diet for 1 week after arrival. The mice were then randomly divided into 6 groups (n=10) and fed the respective experimental diets for 16 weeks: normal diet group (ND, American Institute of Nutrition (AIN)-76 semi-synthetic diet), high-fat diet group (HFD, 20% fat+1% cholesterol based on AIN-76 diet), PSI group (HFD+5% D-psicose, w/w, Sigma Chemical Company), ERY group (HFD+5% erythritol, w/w, Sigma Chemical Company), GLU group (HFD+5% D-glucose, w/w, Sigma Chemical Company), and FRU group (HFD+5% D-fructose, w/w, Sigma Chemical Company). All high-fat diet-fed groups were allowed to ingest the same calories by pair feeding based on the PSI group. The mice had ad libitum access to distilled water during the experimental period. Their feed intakes and body weights were measured daily and biweekly, respectively. The organ weights and the adipose tissue weights of the mice were measured after sacrificing the animals. Samples were prepared and analyzed according to the method developed by Hulcher and Oleson. Specifically, the activity of fatty acid synthase (FAS) as a lipid regulating enzyme of epididymal white adipose tissue was measured by spectrophotometric assay according to the method described by Nepokroeff et al. Each sample was mixed with 100 μl of cytoplasmic fraction and the mixture was allowed to react at 30° C. for 2 min. A reduction in absorbance at 340 nm was measured. FAS activity units were expressed as nanomoles (nmol) of NADPH oxidized for 1 min per mg of cytoplasmic fraction. Fatty acid β-oxidation activity was measured by monitoring the reduction of NAD^+ to NADH in the presence of palmitoyl-CoA, as described by Lazarow. β-oxidation activity units were expressed as nanomoles (nmol) of NADH produced for 1 min per mg of mitochondrial protein.

For assay [2], the system named is high-fat diet-induced obese mice. As to the kind of experiment: Adipose tissue morphologies (epididymal WAT, H&E). As to conditions: FIG. 5B, 200×, HFD+5% w/w in diet, 16 weeks. The procedure: (§2) First, 4-week-old male C57BL/6J mice (60 total) were purchased from Jackson Laboratory. The animals were acclimated to the vivarium in a thermo-hygrostat (20-23° C., 45-65%) under a 12 h light/dark cycle and fed a pelletized commercial non-purified diet for 1 week after arrival. The mice were then randomly divided into 6 groups (n=10) and fed the respective experimental diets for 16 weeks: normal diet group (ND, American Institute of Nutrition (AIN)-76 semi-synthetic diet), high-fat diet group (HFD, 20% fat+1% cholesterol based on AIN-76 diet), PSI group (HFD+5% D-psicose, w/w, Sigma Chemical Company), ERY group (HFD+5% erythritol, w/w, Sigma Chemical Company), GLU group (HFD+5% D-glucose, w/w, Sigma Chemical Company), and FRU group (HFD+5% D-fructose, w/w, Sigma Chemical Company). All high-fat diet-fed groups were allowed to ingest the same calories by pair feeding based on the PSI group. The mice had ad libitum access to distilled water during the experimental period. Their feed intakes and body weights were measured daily and biweekly, respectively. The organ weights and the adipose tissue weights of the mice were measured after sacrificing the animals.
Epididymal WATs were removed from the mice in the normal diet group (ND) and high-fat diet groups (HFD, ERY, GLU, FRU, and PSI) and fixed in a buffer solution of 10% formalin. The fixed epididymal WATs were embedded in paraffin. […] sections were prepared from the epididymal WATs and their cross-sections were dyed with hematoxylin and eosin. Stained areas were observed using an optical microscope at a magnification of 200× (Nikon, Tokyo, Japan).

The subject of assay [3] is Fatty acid β-oxidation. Description: Fatty acid β-oxidation activity in adipose tissue. As to conditions: FIG. 5A, epididymal white adipose tissue, HFD+5% w/w in diet, 16 weeks. As to the method:
as §1

In assay [4] the test system is high-fat diet-induced obese mice. As to the kind of experiment: Lipid excretion in feces. As to conditions: FIG. 7, HFD+5% w/w in diet, 16 weeks. As to the method:
as §2
Lipids were extracted from feces from mice in the normal diet group (ND) and the high-fat diet groups (HFD, ERY, GLU, FRU, and PSI) and dried. Then, each of the dried lipid extracts was dissolved in 1 ml of ethanol. 200 μl of the lipid solution was emulsified in a solution of Triton X-100 and sodium cholate in distilled water. Triglyceride, cholesterol, and fatty acid levels in the feces were analyzed using the same enzymatic kits as those used in Example 2.

The test system of assay [5] is CPT2 (Carnitine palmitoyltransferase 2, 12896). As to the kind of experiment: Hepatic mRNA expression, real-time quantitative PCR: CPT2. The note with it: FIG. 6, liver, HFD+5% w/w in diet, 16 weeks. As to the method:
as §2
Samples were prepared and analyzed as previously described. Specifically, total RNA was synthesized into cDNA using a QuantiTect Reverse Transcription kit (QIAGEN Gmb1h, Hilden, Germany). RNA expression was quantified with real-time quantitative PCR using a QuantiTect SYBR Green PCR kit (QIAGEN Gmb1h, Hilden, Germany). Primers were designed to detect FAS (fatty acid synthase, 14101), ACC1 (Acetyl-CoA carboxylase 1, 107476), CPT1α (Carnitine palmitoyltransferase 1α, 12894), and CPT2 (Carnitine palmitoyltransferase 2, 12896). GAPDH was used as an internal transcription marker. The reaction was performed a total of 40 cycles (each consisting of 15 sec at 94° C., 30 sec at 58° C., 30 sec at 72° C., and 15 sec at 65° C.). Fluorescence signals were monitored every cycle and the resulting threshold cycles (Ct) were analyzed. mRNA expression in each experimental group was quantified using a CFX96 Real time system (Bio-rad, USA).

For assay [6], the system named is high-fat diet-induced obese mice. As to the kind of experiment: Hepatic lipid profiles. The note with it: FIG. 4A, HFD+5% w/w in diet, 16 weeks. The procedure: as §2
Hepatic lipids were extracted from mice in the normal diet group (ND) and high-fat diet groups (HFD, ERY, GLU, FRU, and PSI) and dried. Then, each of the dried hepatic lipid extracts was dissolved in 1 ml of ethanol. 200 μl of the lipid solution was emulsified in a solution of Triton X-100 and sodium cholate in distilled water. Hepatic fatty acid, triglyceride, and cholesterol levels were analyzed using the same enzymatic kits as those used in Example 2.

As for `OC[C@@H](O)[C@@H](O)CO` [ERY, erythritol], the “FAS activity in adipose tissue” value in assay [1] is “increased significantly compared to those in the ND group”. In assay [2], the “size of adipocytes in the epididymal WATs” value (“size of adipocytes” below) was “increase in the size of adipocytes”. In addition, the “fatty acid β-oxidation activity in adipose tissue” value (“fatty acid β-oxidation activity” below) in assay [3] is recorded as “decreased significantly compared to those in the ND group”. For the same compound, in assay [4], the “cholesterol level in the feces” value was “significantly higher than those from the normal diet group”, the “fatty acid level in the feces” value was “significantly higher than those from the normal diet group” and the “triglyceride level in the feces” value is “significantly higher than those from the normal diet group”. In addition, the “hepatic mRNA expression level of CPT2” value in assay [5] was “significantly lower than those in the ND group”. Besides, in assay [6], the hepatic cholesterol level result is reported as “significantly higher than those in the ND group”, the “hepatic fatty acid level” value is recorded as “significantly higher than those in the ND group” and the hepatic triglyceride level entry is listed as “significantly higher than those in the ND group”.

In the case of `O=C(CO)[C@@H](O)[C@H](O)[C@H](O)CO` [FRU, D-fructose], the “FAS activity in adipose tissue” value in assay [1] is given as “increased significantly compared to those in the ND group”. Further, the “size of adipocytes” value in assay [2] is listed as “increase in the size of adipocytes”. In addition, the “fatty acid β-oxidation activity” value in assay [3] is reported as “decreased significantly compared to those in the ND group”. In assay [4], the “cholesterol level in the feces” value is “significantly higher than those from the normal diet group”, the “fatty acid level in the feces” value is “significantly higher than those from the normal diet group” and the “triglyceride level in the feces” value was “significantly higher than those from the normal diet group”. Also, the “hepatic mRNA expression level of CPT2” value in assay [5] is given as “significantly lower than those in the ND group”. For the same compound, in assay [6], the hepatic cholesterol level result is “significantly higher than those in the ND group”, the “hepatic fatty acid level” value was “significantly higher than those in the ND group” and the hepatic triglyceride level result is “significantly higher than those in the ND group”.

As for `O=C[C@H](O)[C@@H](O)[C@H](O)[C@H](O)CO` [GLU, D-glucose], in assay [1], the “FAS activity in adipose tissue” value is “increased significantly compared to those in the ND group”. The “size of adipocytes” value in assay [2] is on record as “increase in the size of adipocytes”. In addition, in assay [3], the “fatty acid β-oxidation activity” value is “decreased significantly compared to those in the ND group”. Further, in assay [4], the “cholesterol level in the feces” value is given as “significantly higher than those from the normal diet group”, the “fatty acid level in the feces” value is “significantly higher than those from the normal diet group” and the “triglyceride level in the feces” value is “significantly higher than those from the normal diet group”. Also, the “hepatic mRNA expression level of CPT2” value in assay [5] is given as “significantly lower than those in the ND group”. Besides, in assay [6], the hepatic cholesterol level entry is listed as “significantly higher than those in the ND group”, the “hepatic fatty acid level” value was “significantly higher than those in the ND group” and the hepatic triglyceride level entry is recorded as “significantly higher than those in the ND group”.

Take `O=C(CO)[C@H](O)[C@H](O)[C@H](O)CO` [PSI, D-psicose]: in assay [1], the “FAS activity in adipose tissue” value was “decreased significantly compared to those in other high-fat diet groups”. Moreover, the “size of adipocytes” value in assay [2] is “relatively small compared to that in the other high-fat diet groups”. Besides, in assay [3], the “fatty acid β-oxidation activity” value is reported as “increased significantly compared to those in other high-fat diet groups”. Also, in assay [4], the “cholesterol level in the feces” value is on record as “significantly higher than those from other high-fat diet groups”, the “fatty acid level in the feces” value is listed as “significantly higher than those from other high-fat diet groups” and the “triglyceride level in the feces” value was “significantly higher than those from other high-fat diet groups”. In addition, the “hepatic mRNA expression level of CPT2” value in assay [5] is “much significantly lower than those in the ND group”. Moreover, in assay [6], the hepatic cholesterol level entry is on record as “decreased significantly compared to those in other high-fat diet groups”, the “hepatic fatty acid level” value was “decreased significantly compared to those in other high-fat diet groups” and the hepatic triglyceride level entry is listed as “decreased significantly compared to those in other high-fat diet groups”.

These data come from patent publication US20180243325A1, “METHOD FOR INHIBITING ABSORPTION OF AND/OR PROMOTING EXCRETION OF LIPIDS USING D-PSICOSE” (CJ CHEILJEDANG CORPORATION, priority 2015, published 2018).
